System: NOMO1
Test: cell viability relative to DMSO control; higher = less cytotoxic
Details: 48 h
Method in brief: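 Viability is a per-plate percentage relative to DMSO wells, with cell-free wells as background. CellTiter-Glo One luminescence was read after 48 h at 37°C on 1536-well plates (5 μl) of NOMO1 or SEM (500 cells/well) or P12-Ichikawa (1000 cells/well) leukemia cells. The cells had been adapted for at least four passages in each medium and pin-dosed with library compounds in DMSO from 47 μM to 0.79 nM in 11 threefold steps.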

[1] = HPLM + 10% dialyzed FBS, 0.000781 µM
[2] = HPLM + 10% dialyzed FBS, 0.00234 µM
[3] = HPLM + 10% dialyzed FBS, 0.00702 µM
[4] = HPLM + 10% dialyzed FBS, 0.0211 µM
[5] = HPLM + 10% dialyzed FBS, 0.0632 µM
[6] = HPLM + 10% dialyzed FBS, 0.19 µM
[7] = HPLM + 10% dialyzed FBS, 0.569 µM
[8] = HPLM + 10% dialyzed FBS, 1.71 µM
[9] = HPLM + 10% dialyzed FBS, 5.12 µM
[10] = HPLM + 10% dialyzed FBS, 15.4 µM
[11] = HPLM + 10% dialyzed FBS, 46.1 µM
[12] = RPMI 5 mM glucose + 10% dialyzed FBS, 0.000781 µM
[13] = RPMI 5 mM glucose + 10% dialyzed FBS, 0.00234 µM
[14] = RPMI 5 mM glucose + 10% dialyzed FBS, 0.00702 µM
[15] = RPMI 5 mM glucose + 10% dialyzed FBS, 0.0211 µM
[16] = RPMI 5 mM glucose + 10% dialyzed FBS, 0.0632 µM
[17] = RPMI 5 mM glucose + 10% dialyzed FBS, 0.19 µM
[18] = RPMI 5 mM glucose + 10% dialyzed FBS, 0.569 µM
[19] = RPMI 5 mM glucose + 10% dialyzed FBS, 1.71 µM
[20] = RPMI 5 mM glucose + 10% dialyzed FBS, 5.12 µM
[21] = RPMI 5 mM glucose + 10% dialyzed FBS, 15.4 µM
[22] = RPMI 5 mM glucose + 10% dialyzed FBS, 46.1 µM
[23] = RPMI 5 mM glucose + 10% FBS, 0.000781 µM
[24] = RPMI 5 mM glucose + 10% FBS, 0.00234 µM
[25] = RPMI 5 mM glucose + 10% FBS, 0.00702 µM
[26] = RPMI 5 mM glucose + 10% FBS, 0.0211 µM
[27] = RPMI 5 mM glucose + 10% FBS, 0.0632 µM
[28] = RPMI 5 mM glucose + 10% FBS, 0.19 µM
[29] = RPMI 5 mM glucose + 10% FBS, 0.569 µM
[30] = RPMI 5 mM glucose + 10% FBS, 1.71 µM
[31] = RPMI 5 mM glucose + 10% FBS, 5.12 µM
[32] = RPMI 5 mM glucose + 10% FBS, 15.4 µM
[33] = RPMI 5 mM glucose + 10% FBS, 46.1 µM

| SMILES | cell viability [1] | cell viability [2] | cell viability [3] | cell viability [4] | cell viability [5] | cell viability [6] | cell viability [7] | cell viability [8] | cell viability [9] | cell viability [10] | cell viability [11] | cell viability [12] | cell viability [13] | cell viability [14] | cell viability [15] | cell viability [16] | cell viability [17] | cell viability [18] | cell viability [19] | cell viability [20] | cell viability [21] | cell viability [22] | cell viability [23] | cell viability [24] | cell viability [25] | cell viability [26] | cell viability [27] | cell viability [28] | cell viability [29] | cell viability [30] | cell viability [31] | cell viability [32] | cell viability [33] |
| --- | --- | --- | --- | --- | --- | --- | --- | --- | --- | --- | --- | --- | --- | --- | --- | --- | --- | --- | --- | --- | --- | --- | --- | --- | --- | --- | --- | --- | --- | --- | --- | --- | --- |
| CCOc1ccc(Nc2nc(-c3c(C)nc4ccccn34)cs2)cc1 | 109% | 118% | 119% | 111% | 40% | 35.7% | 33.4% | 38.7% | 38.8% | 45.7% | 40.4% | 119% | 117% | 128% | 120% | 112% | 33.2% | 31.4% | 30.2% | 31.4% | 35.9% | 32.1% |  |  |  |  |  |  |  |  |  |  |  |
| CCC[C@H](N[C@@H](C)C(=O)N1[C@H](C(=O)O)C[C@@H]2CCCC[C@@H]21)C(=O)OCC | 115% | 124% | 119% | 119% | 105% | 102% | 115% | 89.4% | 36% | 54.1% | 43.9% | 114% | 110% | 118% | 116% | 108% | 109% | 96.2% | 87.5% | 66.4% | 72.6% | 48.2% | 97.4% | 101% | 115% | 109% | 111% | 106% | 105% | 95.3% | 86.7% | 78.9% | 64.6% |
| CNC1[C@@H](O)C(O[C@@H]2C(O)C(O[C@H]3O[C@H]([C@@H](C)NC)CC[C@H]3N)[C@@H](N)C[C@H]2N)OC[C@]1(C)O (some centres undefined) | 98.9% | 102% | 104% | 106% | 108% | 98.1% | 106% | 87.4% | 85.3% | 91.4% | 63.7% | 92.4% | 84.5% | 87.1% | 81.2% | 88.5% | 87.7% | 92.1% | 90% | 83.1% | 89.8% | 76.5% | 93.4% | 99.6% | 93.2% | 97.3% | 91.3% | 91.2% | 91.2% | 98.9% | 87.7% | 92.8% | 96.7% |
| C\C1=C\C(=O)C2=C(C=CC=C2)C1=O | 100% | 122% | 117% | 134% | 132% | 126% | 126% | 134% | 128% | 131% | 127% | 119% | 117% | 131% | 130% | 140% | 128% | 135% | 151% | 128% | 148% | 134% | 116% | 108% | 120% | 125% | 133% | 133% | 137% | 124% | 129% | 125% | 140% |
| CN(C)CCc1c[nH]c2ccc(C[C@H]3COC(=O)N3)cc12 | 104% | 119% | 106% | 113% | 106% | 121% | 127% | 111% | 104% | 48.1% | 9.77% | 96.4% | 108% | 106% | 111% | 116% | 114% | 108% | 102% | 109% | 87.8% | 20.1% | 104% | 98.6% | 106% | 101% | 112% | 97.3% | 110% | 106% | 99.9% | 59.2% | 12.9% |
| N[S+](=O)([O-])c1cc(Cl)c(Cl)c([S+](N)(=O)[O-])c1 | 112% | 92.2% | 107% | 105% | 106% | 104% | 116% | 98.3% | 86.5% | 82.6% | 94.3% | 97.9% | 99.1% | 110% | 97.5% | 108% | 95.7% | 98.5% | 92.6% | 91.7% | 100% | 85.8% | 112% | 95.7% | 96% | 101% | 104% | 93.7% | 99.3% | 95.3% | 100% | 89.3% | 87.5% |
| CC(C)(C)C(=O)OCOP(=O)(COCCn1cnc2c(N)ncnc21)OCOC(=O)C(C)(C)C | 86.9% | 99.5% | 93.6% | 108% | 88.3% | 62.2% | 68.2% | 33.9% | 32.2% | 18.9% | 2.01% | 101% | 93.6% | 91.9% | 93.7% | 78.5% | 66.9% | 47.7% | 28.6% | 14.9% | 14.2% | 2.41% | 109% | 96% | 98.2% | 98.6% | 70.3% | 61.4% | 44.4% | 19.9% | 15.8% | 9.1% | 2.21% |
| C1CCC(C(CC2CCCCN2)C2CCCCC2)CC1 (centres undefined) | 121% | 111% | 127% | 111% | 140% | 127% | 132% | 150% | 131% | 118% | 5.65% | 110% | 108% | 124% | 107% | 114% | 130% | 114% | 131% | 116% | 98.1% | 6.09% | 108% | 116% | 133% | 144% | 116% | 122% | 132% | 115% | 131% | 121% | 6.9% |
| ClC1=CC(=CC=C1)N2CCN(CCCN3\N=C4\C=C/C=C\N4C3=O)CC2 |  |  |  |  |  |  |  |  |  |  |  |  |  |  |  |  |  |  |  |  |  |  | 113% | 121% | 123% | 137% | 126% | 137% | 142% | 147% | 137% | 141% | 137% |
| CCOC(=O)[C@H](CCc1ccccc1)N[C@@H](C)C(=O)N1CCC[C@H]1C(=O)O | 128% | 105% | 117% | 134% | 125% | 119% | 108% | 119% | 110% | 99.8% | 102% | 97.9% | 109% | 116% | 122% | 116% | 123% | 112% | 110% | 103% | 96% | 99.5% | 114% | 105% | 111% | 102% | 102% | 105% | 97.7% | 103% | 98.7% | 93.3% | 103% |
| CCOc1cc(N)c(Cl)cc1C(=O)NCC1CN(Cc2ccc(F)cc2)CCO1 (centres undefined) | 85.2% | 120% | 125% | 118% | 119% | 120% | 102% | 120% | 128% | 111% | 107% | 113% | 115% | 122% | 118% | 116% | 111% | 125% | 112% | 111% | 107% | 107% | 102% | 115% | 106% | 108% | 114% | 108% | 106% | 113% | 122% | 109% | 104% |
| Cc1ncc(OC[C@@]2(c3cccc(F)c3)C[C@H]2C(=O)Nc2ccc(F)cn2)c(C)n1 | 108% | 106% | 122% | 120% | 125% | 129% | 117% | 105% | 120% | 117% | 108% | 102% | 107% | 105% | 106% | 119% | 110% | 97% | 101% | 112% | 110% | 116% | 105% | 93.8% | 125% | 92.7% | 105% | 113% | 107% | 92.2% | 102% | 101% | 116% |
| CN(C)C(=O)c1ccc([S+](=O)([O-])c2ccc(NC(=O)[C@@](C)(O)C(F)(F)F)c(Cl)c2)cc1 | 104% | 104% | 114% | 123% | 95.9% | 128% | 126% | 105% | 91.3% | 33% | 10.2% | 95.9% | 109% | 116% | 118% | 108% | 104% | 104% | 91.2% | 99.8% | 89.7% | 60.4% | 104% | 109% | 102% | 105% | 114% | 101% | 112% | 99.4% | 105% | 38.7% | 13.5% |
| CCN(CC)CCCCNc1nc2cc(Cl)c(Cl)cc2nc1-c1ccc(-c2cccs2)s1 | 101% | 124% | 123% | 128% | 111% | 137% | 137% | 121% | 138% | 98.4% | 3.87% | 98.3% | 112% | 108% | 112% | 110% | 119% | 114% | 108% | 112% | 108% | 5.42% | 97% | 103% | 111% | 115% | 123% | 119% | 123% | 102% | 117% | 113% | 5.9% |
